From patent publication US4256764A, “Process for making derivatives of dimers of isoeugenol” (PLC Pharmaceutical Licenses Co. Ltd., priority 1978, dated 1981)

Experiments:
[1] = test system: serum enzymes GOT and GPT; experiment: galactosamine test (liver protection, serum enzymes GOT and GPT); assay type: in vivo; conditions: rats
Description: (§1) These tests have been described in the already-quoted work by G. Vogel et al. published in Arzneimittelforschung, volume 25 (1975), pages 82 to 89 and 179 to 188.
In the galactosamine tests the rats received in groups each of 15 animals 100 mg/kg of the compound to be tested N-(5-(trans-2,3-dihydro-7-methoxy-3-methyl-5-(E)-propenylbenzofuran-2-yl)- 2-hydroxy-3-methoxy-phenylmethyl)-N-(2-hydroxyethyl)-N-methyl-ammonium chloride and for comparison purposes Silymarine in the tragacanth suspension perorally, one hour later interperitoneally 350 mg/kg of galactosamine hydrochloride and 24 hours later blood samples were taken for determining the serum enzymes GOT and GPT.

mice = experiment: α amanitine test (mortality); assay type: in vivo; conditions: 20 per group, 50 mg/kg i.v., 0.7 mg/kg α amanitine i.p. 1 h later, observed 7 days
Description: as §1
In the α amanitine test the mice received in groups of 20 animals each 50 mg/kg of N-(5-(trans-2,3-dihydro-7-methoxy-3-methyl-5-(E)-propenylbenzofuran-2-yl)-2--hydroxy-3-methoxyphenyl-methyl)-N) (2-hydroxyethyl)-N-methyl ammonium chloride and for comparison Silymarine intravenously and an hour later 0.7 mg/kg of α amanitine intraperitoneally.

[2] = toxicologic investigations (LD50); conditions: rat, in vivo, po; rats, peroral application
From the text: The toxicologic investigations indicate a good compatibility of the compounds produced by the process according to the invention.

[3] = test system: experimental liver damage; experiment: hexobarbitone sleep test (experimental liver damage by carbon tetrachloride); assay type: in vivo; conditions: rats
Description: A standard testing process for pharmacological effect for experimental liver damage is the hexobarbitone sleep test, whose execution is described among others in a work by G. Vogel et al. in the Arzneimittelforschung, volume 25 (1975), pp. 82-89 and pp. 179-188. For this purpose 100 mg/kg of the compound to be tested were given to rats in groups each of 15 animals in carboxymethyl cellulose intraperitoneally and 90 minutes later 0.3 ml/kg carbon tetrachloride in olive oil by means of a throat probe. The rats were anaesthetised 48 hours later by intraperitoneal dosing of 70 mg/kg of hexabarbitone and the sleep duration was determined: […]

[4] = 100 mg/kg perorally, enzyme GPT
[5] = 15 per group, 100 mg/kg perorally in tragacanth suspension, 350 mg/kg galactosamine hydrochloride i.p. 1 h later, blood samples 24 h later

Compound	effect on GPT compared with Silymarine [1, 4]	statistical significance of the effect on GPT [1, 4]	GOT [1, 5]	GPT [1, 5]	mortality rate (mice) [%]	LD50 [2] [mg/kg]	statistical significance of the effect (sleep duration) ([3]; 100 mg/kg i.p., carbon tetrachloride)	sleep duration ([3]; 15 per group, 100 mg/kg i.p. in carboxymethyl cellulose, 0.3 ml/kg carbon tetrachloride 90 min later, 70 mg/kg hexobarbitone i.p. after 48 h) [min]
C/C=C/c1cc(OC)c2c(c1)[C@@H](C)[C@H](c1cc(CN(C)CCO)c(O)c(OC)c1)O2.Cl (relative stereo) [N-(5-(trans-2,3-dihydro-7-methoxy-3-methyl-5-(E)-propenylbenzofuran-2-yl)-2-hydroxy-3-methoxy-phenylmethyl)-N-(2-hydroxyethyl)-N-methyl-ammonium chloride]	clearly better than that of Silymarine	highly significant	422	185	20	4000 to 16000		
C/C=C/c1cc(OC)c2c(c1)[C@@H](C)[C@H](c1ccc(O)c(OC)c1)O2 (relative stereo) [dehydrodiisoeugenol, trans-2,3-dihydro-2-(4-hydroxy-3-methoxyphenyl)-7-methoxy-3-methyl-5-(E)-propenylbenzofurane]							highly significant	97
